From patent publication US20240390379A1, “EZH2 Inhibition in Pancreatic Cancer” (University of Massachusetts, priority 2021, published 2024)

System: KPC1 PDAC cells
Test: qRT-PCR of senescence and SASP gene expression in KPC1 PDAC cells with EZH2 methyltransferase inhibitors
Assay type: cell-based, mouse
Conditions: GSK126 1 μM or tazemetostat 5 μM with trametinib 25 nM and palbociclib 500 nM, 8 days
Procedure: P values in b-c were calculated using two-tailed, unpaired Student's t-test.
Trametinib (S2673), palbociclib (S1116), and GSK126 (S7061) were purchased from Selleck chemicals for in vitro studies. Drugs for in vitro studies were dissolved in DMSO (vehicle) to yield 10 mM stock solutions and stored at −80° C. For in vitro studies, growth media with or without drugs was changed every 2-3 days.
Total RNA was isolated using the RNeasy Mini Kit (Qiagen), and complementary DNA (cDNA) was obtained using the TaqMan reverse transcription reagents (Applied Biosystems).
Flow cytometry was performed on a BD LSR II, and data were analyzed using FlowJo (TreeStar).

## CC[C@H](C)n1cc(C)c2c(C(=O)NCc3c(C)cc(C)[nH]c3=O)cc(-c3ccc(N4CCNCC4)nc3)cc21 [GSK126]
  Pro-inflammatory SASP factors and immunomodulatory cell surface proteins: induced pro-inflammatory SASP factors and immunomodulatory cell surface proteins
  Senescence-associated cell cycle arrest: without impacting senescence-associated cell cycle arrest
